Results from the supplement of paper PMC13380429.

Legend:
A549-ACE2 = assay: phospholipidosis EC50; higher = less potent phospholipidosis inducer
[1] = system: A549-ACE2 infected with SARS-CoV-2; assay: morphology score (similarity to uninfected cells); higher = more like uninfected cells; conditions: 24 h
Calu-3 [2] = assay: drug sensitivity score (DSS) for viability; higher = more toxic; extreme values may be limits of the assay; conditions: 72 h
Vero E6 [3] = assay: as above; conditions: 72 h
U2OS [4] = assay: as above; conditions: 72 h
Caco-2 [5] = assay: as above; conditions: 72 h
HepG2 [6] = assay: as above; conditions: 72 h
Calu-3 [7] = assay: relative viability EC50 (midpoint between 100% and the lowest measured viability); higher = less toxic; conditions: 72 h
Vero E6 [8] = assay: as above; conditions: 72 h
U2OS [9] = assay: as above; conditions: 72 h
Caco-2 [10] = assay: as above; conditions: 72 h
HepG2 [11] = assay: as above; conditions: 72 h
Calu-3 [12] = assay: cell viability relative to DMSO; higher = less toxic; conditions: 72 h
Vero E6 [13] = assay: as above; conditions: 72 h
U2OS [14] = assay: as above; conditions: 72 h
Caco-2 [15] = assay: as above; conditions: 72 h
HepG2 [16] = assay: as above; conditions: 72 h

CN(C)CCCN1c2ccccc2Sc2ccc(C(F)(F)F)cc21 [triflupromazine]
Conditions	morphology score, 0.3 µM	morphology score, 3 µM	morphology score, 10 µM	morphology score, 30 µM	phospholipidosis EC50, 24 h [µM]	phospholipidosis EC50, 48 h [µM]	phospholipidosis EC50, 72 h [µM]
A549-ACE2	–	–	–	–	4.26	11.7	3.51
[1]	0.09	0.65	0.84	0.41	–	–	–

CC(C)(C)c1ccc(S(=O)(=O)Nc2ccc(Cl)cc2C(=O)c2cc[n+]([O-])cc2)cc1 [vercirnon]
Conditions	drug sensitivity score	relative viability EC50 [µM]
Caco-2 [5]	0	–
Caco-2 [10]	–	> 10
Calu-3 [2]	0	–
Calu-3 [7]	–	> 10
HepG2 [6]	0	–
HepG2 [11]	–	> 10
U2OS [4]	0	–
U2OS [9]	–	> 10
Vero E6 [3]	0	–
Vero E6 [8]	–	> 10

cell viability [%]
Conditions	Caco-2 [15]	Calu-3 [12]	HepG2 [16]	U2OS [14]	Vero E6 [13]
1 nM	89.6	95.4	93.4	97.7	98.2
10 nM	97.4	99.9	93.7	97.5	97.4
100 nM	87.4	99.7	104	97.1	94.7
1000 nM	110	93	106	104	95.6
10000 nM	100	96.3	89.4	104	106

CC[C@]1(O)C[C@@H]2CN(CCc3c([nH]c4ccccc34)[C@@](C(=O)OC)(c3cc4c(cc3OC)N(C)[C@H]3[C@@](O)(C(N)=O)[C@H](O)[C@]5(CC)C=CCN6CC[C@]43[C@@H]65)C2)C1 [vindesine]
Conditions	drug sensitivity score	relative viability EC50 [µM]
Caco-2 [5]	20.6	–
Caco-2 [10]	–	0.0121
Calu-3 [2]	17.8	–
Calu-3 [7]	–	0.0122
HepG2 [6]	23.5	–
HepG2 [11]	–	0.0085
U2OS [4]	25.7	–
U2OS [9]	–	0.018
Vero E6 [3]	14.3	–
Vero E6 [8]	–	0.219

cell viability [%]
Conditions	Caco-2 [15]	Calu-3 [12]	HepG2 [16]	U2OS [14]	Vero E6 [13]
1 nM	93.8	93.8	92.9	98.7	96.4
10 nM	72.7	70.6	64.8	73.5	95.3
100 nM	48.5	61.4	43.2	31.6	83.3
1000 nM	41.2	47	35.8	26.4	33.6
10000 nM	40.3	45.9	37.2	22.3	27.3

Cn1nc(-c2ccc(C(F)(F)F)cc2)nc2c(=O)n(C)c(=O)nc1-2 [walrycin-B]
Conditions	drug sensitivity score	relative viability EC50 [µM]
Caco-2 [5]	10.2	–
Caco-2 [10]	–	1.15
Calu-3 [2]	3	–
Calu-3 [7]	–	2.87
HepG2 [6]	11.6	–
HepG2 [11]	–	0.88
U2OS [4]	5.7	–
U2OS [9]	–	3.02
Vero E6 [3]	3.5	–
Vero E6 [8]	–	3.26

cell viability [%]
Conditions	Caco-2 [15]	Calu-3 [12]	HepG2 [16]	U2OS [14]	Vero E6 [13]
1 nM	96.6	109	108	105	102
10 nM	99.2	108	101	107	100
100 nM	99.3	108	84.7	100	102
1000 nM	61.8	98	51.3	98	101
10000 nM	7.5	48.5	1.6	1.8	34.4
